For twelve compounds, EC50, Infarction suppression ratio and ED50 results are on record in patent publication US5776945A (priority 1995, dated 1998).

SMILES strings stand for the structures. pEC50: −log10 of the molar value.

Test [1] deals with Cultured Neurocyte (cerebral cortexes), Glutamic Acid Toxicity. The experiment in a line: Cultured-Neurocyte Protective Effect against Glutamic Acid Toxicity (LDH leakage). The format is cell-based, rat (Wistar, fetal). To be noted: Rattus norvegicus, Cerebral cortex neuron, 10 mM glutamic acid, 24 hours at 37° C., read-out: ED50 (50% effective dose), neurocyte protective effect against glutamic acid toxicity. The text has this:
It is known that delayed cerebral-neuronal death is induced if blood flow to the brain is transiently stopped by transient ischemia, anoxia, hypoglycemia, or trauma [T. Kirino, Brain Research, 239, 57 (1982).]. The excitatory toxicity of excitatory neurotransmitters, such as glutamic acid, which is excessively released when associated with ischemia is considered as the cause of the neurocyte damage [S. M. Rotherman and J. W. Olney, Trends in Neuroscience, 10, 299 (1987).]. A compound which protects neurocytes from the cytotoxicity of glutamic acid will be promising as a preventive and therapeutic agent for cerebral ischemic diseases, cerebral neurocyte disorder, and dementia. The following method is employed as an in vitro evaluation system of the protective effect.
Under sterilized conditions, fetuses were taken from female Wistar rats 18 to 19 day-pregnant and the brains thereof were obtained by opening their cranial portions. The brains were placed in an ice-cold L-15 medium to microscopically separate the cerebral cortexes. After being cut into small pieces, the cerebral cortexes of approximately 30 rats were suspended in a mixture of 10 ml of a 0.25% trypsin solution and 0.2 ml of a 0.01% DNase solution to be cultured at 37° C. for 30 min. Then, immediately after addition of 2 ml of serum, the resultant was centrifuged at 1,200 rpm for 2 min. to separate a sediment. To the sediment, 7 ml of a DF medium (prepared by addition of 20 nM of transferrin, 5 μg/ml of insulin, 20 nM of progesterone, 60 nM of selenite, 50 U/ml of penicillin, and 50 U/ml of streptomycin to an equivalent admixture of Dulbecco modified Eagle medium and F-12 medium) was added to prepare a cell suspension which was pipetted 20 times using a 10 ml plastic pipette followed by filtration using a nylon mesh (pore size of 43 μm) to obtain isolated cells. The resulting isolated cells were diluted to 6.0×10^5 cells/ml with the DF medium, inoculated in a polylysine-precoated culture plate having 48 wells at 500 μl per well, and cultured at 37° C. in the presence of 5% CO2 for 1 day. The medium was changed with fresh DF medium on the second day, and 10 μl of a 0.5M glutamic acid solution in distilled water is added to each of the wells (the final concentration of the glutamic acid was 10 mM), and the cells were cultured for further 24 hours at 37° C. in the presence of 5% CO2. Each of the subject compounds was dissolved in distilled water, 10% or 100% DMSO, or 10% methanol and then a 5 μl aliquot was added to each well immediately before addition of glutamic acid. The enzymatic activity of lactate dehydrogenase (LDH) which leaked into the medium from the damaged cells was measured as an index of the neurocyte damage. With respect to each of the subject compounds, LDH leakage at the respective concentrations was measured and a dose-response curve was obtained by a modified Cochran-Armitige method to obtain the 50% effective dose (ED50) of each subject compound.

Test [2] deals with Rat Middle Cerebral Artery Occlusion Model. The experiment in a line: Infarction Suppression Effect in Rat Middle Cerebral Artery Occlusion (MCAO) Model. The format is in vivo, rat (Wistar). Conditions: i.p. 1 hour before occlusion and 1 hour after reopening, infarction volume 4 days after. The text has this:
Remarkable cerebral edema accompanied with severe cerebrovascular lesions appears in the acute stage of human cerebral infarction. […] Corresponding to development of the lesion from the infarction area to surrounding tissues, the patient's life is seriously affected besides motor and mental functional loss in the conditions of the acute stage of cerebral infarction. A middle cerebral artery occlusion (MCAO; Middle Cerebral Artery Occlusion) model in Wistar rats using emboli with threads is well known as an experimental cerebral ischemia model in which clinical potency of a medicine can be accurately evaluated conforming to clinical conditions of human cerebral infarction [J. Koizumi, Japan Journal of Stroke, 8, 1 (1986)]. This MCAO model was employed as an in vivo evaluation system for evaluating the suppression effect of the compounds of the present invention on infarction development and was conducted according to the following method:
Under 1.0% halothane anesthesia induced by ether, the cervical region of each 10-week old rat was excised at center to expose the furcation of the right carotid while paying attention not to damage the vagus nerve. Centering around the furcation of the right carotid, the common carotid and the external carotid were separated from the surrounding tissues, each of them was ligated with 6-0 floss (Eto K.K.), and another floss was wound around the origin of the internal carotid so as to ligate and fix after inserting the embolus into the carotid. The common carotid was then incised to insert the ebolus toward the internal carotid to approximately 15 to 16 mm, and the proximal terminal of a nylon thread of the embolus was ligated and fixed to the internal carotid with the above mentioned floss. Due to the above procedure, the tip of the embolus exceeded the furcation of the middle cerebral artery, entered into the anterior cerebral artery to approximately 1 to 2 mm, and the entrance of the middle cerebral artery was occluded by the embolus body (made of a resin) for 2 hours. To reopen, the embolus with a thread was pulled away so as to restart the blood flow to the middle cerebral artery. Each of the subject compounds was intraperitoneally administered 1 hour before occlusion and 1 hour after reopening. Four days after the occlusion-reopening, each rat was systematically perfused with a saline from the heart and the brain was removed. After cooling each of the obtained brains with iced-water for 5 min., 7 coronary slices, taken at 2.0 mm intervals, of the cerebrum were prepared. Each slice was stained with TTC (triphenyltetrazolium chloride) and fixed with a neutral 5% formalin buffer solution, then the infarction area of the right cerebral hemisphere was measured by an image analyzer (Olympus) so as to evaluate the infraction expressed as a volume (mm3). The resulting infraction volume was compared with that of a control group to calculate the infarction suppression ratio.

The next test relates to Capsaicin Induced Cough. The experiment in a line: animal or person. The test is classed as in vivo. Conditions: Rattus norvegicus, ip; read-out: ED50, antitussive effect (dose exhibiting 50% cough suppression ratio).
In test [3] the test system is Acetic Acid-Induced Writhing. The experiment in a line: Analgesic Activity Test by Acetic Acid-Induced Writhing Method. The test is classed as in vivo, mouse (ddY). To be noted: Mus musculus, sc; subcutaneous, 15 min. before acetic acid; writhings over 10 min. On the procedure:
For this experiment, 5-week old ddY mice were employed. A 0.6% aqueous acetic acid solution was intraperitoneally administered to each of the mice at 0.1 ml/10 g body weight to evaluate the analgesic activity by employing the number of writhing reactions occurring over a 10 min.-period starting from 10 min. after administration as an index. Each of the subject compounds was subcutaneously administered to the back of each mouse 15 min. before the acetic acid administration.
(In general: An intraperitoneal irritant provokes the stretching counted in writhing tests.)

As to `O=C(N[C@@H]1CC[C@H]2CN(CC3CC3)CC[C@]2(c2cccc(O)c2)C1)c1ccc2ccccc2c1` (relative stereo) [Compound 23, Trans-2-cyclopropylmethyl-4a-(3-hydroxyphenyl)-6β-(2-naphthoamido)decahydroisoquinoline], the pEC50 in test [1] is 7.04. In addition, the Infarction suppression ratio in test [2] (Dose 0.3 mg/kg) is reported as 23%.

As for `CN(C(=O)/C=C/c1cccc(C(F)(F)F)c1)[C@H]1CC[C@H]2CN(CC3CC3)CC[C@]2(c2cccc(O)c2)C1` [Compound 8, (4aS, 8aR)-trans-2-cyclopropylmethyl-4a-(3-hydroxyphenyl)-6α-[N-methyl-(3-trifluoromethylcinnamamido)]decahydroisoquinoline], the Infarction suppression ratio in test [2] (Dose 0.03 mg/kg) was determined as 26%; in test [2] (Dose 0.3 mg/kg) it was 43%; in test [2] (Dose 3 mg/kg) it was 32%. In addition, the ED50 in the test with Capsaicin Induced Cough is 0.00539 mg/kg.

Take `CN(C(=O)/C=C/c1cccc(C(F)(F)F)c1)[C@H]1CC[C@@]2(O)CN(CC3CC3)CC[C@]2(c2cccc(O)c2)C1` (relative stereo) [Compound 12, Trans-2-cyclopropylmethyl-8a-hydroxy-4a-(3-hydroxyphenyl)-6α-[N-methyl-(3-trifluoromethylcinnamamido)]decahydroisoquinoline]: the figures for the ED50 (in test [3]; in the test with Capsaicin Induced Cough) were 1.49 mg/kg and 0.00607 mg/kg, respectively. Further, in test [1], the pEC50 is 6.32. Also, the Infarction suppression ratio in test [2] (Dose 0.3 mg/kg) stood at 64%; in test [2] (Dose 3 mg/kg), 48%.

As for `CN(C(=O)/C=C/c1cccc(C(F)(F)F)c1)[C@@H]1CC[C@@H]2CN(CC3CC3)CC[C@@]2(c2cccc(O)c2)C1` [Compound 9, (4aR, 8aS)-trans-2-cyclopropylmethyl-4a-(3-hydroxyphenyl)-6α-[N-methyl-(3-trifluoromethylcinnamamido)]decahydroisoquinoline], the ED50 in test [3] is 3.11 mg/kg. In test [1], the pEC50 is 6.28. Moreover, the Infarction suppression ratio came to 28% in test [2] (Dose 0.3 mg/kg) and 7% in test [2] (Dose 3 mg/kg).

As to `CC(C)CN(C(=O)Cc1ccc(Cl)c(Cl)c1)[C@H]1CC[C@@]2(O)CN(CC3CC3)CC[C@]2(c2cccc(O)c2)C1` (relative stereo) [Compound 14, Trans-2-cyclopropylmethyl-8a-hydroxy-4a-(3-hydroxyphenyl)-6α-[N-isobutyl-(3,4-dichlorophenylacetamido)]decahydroisoquinoline], the ED50 in test [3] was determined as 5.78 mg/kg. Further, in test [1], the pEC50 was 5.96.

For the compound `CC(C)CN(C(=O)CCCCCc1ccccc1)[C@H]1CC[C@@]2(O)CN(CC3CC3)CC[C@]2(c2cccc(O)c2)C1` (relative stereo) [Compound 13, Trans-2-cyclopropylmethyl-8a-hydroxy-4a-(3-hydroxyphenyl)-6α-[N-isobutyl-(6-phenylhexanoamido)]decahydroisoquinoline], the pEC50 in test [1] was 5.52.

Consider `CN(C(=O)/C=C/c1cccc(C(F)(F)F)c1)[C@H]1CC[C@H]2CN(CC3CC3)CC[C@]2(c2cccc(O)c2)C1` (relative stereo) [Compound 1, Trans-2-cyclopropylmethyl-4a-(3-hydroxyphenyl)-6α-[N-methyl-(3-trifluoromethylcinnamamido)]decahydroisoquinoline], for which the Infarction suppression ratio in test [2] (Dose 0.03 mg/kg) worked out at 32%; in test [2] (Dose 0.3 mg/kg), 13%; in test [2] (Dose 3 mg/kg), 23%.

Consider `O=C(Cc1ccc(Cl)c(Cl)c1)N[C@@H]1CC[C@H]2CN(CC3CC3)CC[C@]2(c2cccc(O)c2)C1` (relative stereo) [Compound 21, Trans-2-cyclopropylmethyl-4a-(3-hydroxyphenyl)-6β-(3,4-dichlorophenylacetamido)decahydroisoquinoline], for which, in test [1], the pEC50 was 4.90.

Regarding `CN(C(=O)CCCCCc1ccccc1)[C@H]1CC[C@H]2CN(CC3CC3)CC[C@]2(c2cccc(O)c2)C1` [Compound 10, (4aS, 8aR)-trans-2-cyclopropylmethyl-4a-(3-hydroxyphenyl)-6α-[N-methyl-(6-phenylhexanoamido)]decahydroisoquinoline], the ED50 in test [3] amounted to 5 mg/kg. The pEC50 in test [1] is 7.37. Further, the Infarction suppression ratio in test [2] (Dose 0.03 mg/kg) turned out to be 19%; in test [2] (Dose 0.3 mg/kg) it was 21%; in test [2] (Dose 3 mg/kg), 7%.

With `O=C(N[C@@H]1CC[C@H]2CN(CCc3ccccc3)CC[C@]2(c2cccc(O)c2)C1)c1ccc2ccccc2c1` (relative stereo) [Compound 24, Trans-2-(2-phenetyl)-4a-(3-hydroxyphenyl)-6β-(2-naphthoamido)decahydroisoquinoline], the ED50 in test [3] was 1.7 mg/kg.

For the compound `CN(C(=O)/C=C/c1ccoc1)[C@H]1CC[C@H]2CN(CC3CC3)CC[C@]2(c2cccc(O)c2)C1` (relative stereo) [Compound 25], the ED50 in test [3] was determined as 0.83 mg/kg.

As for `CC(C)CN(C(=O)CCCCCc1ccccc1)[C@H]1CC[C@H]2CN(CC3CC3)CC[C@]2(c2cccc(O)c2)C1` [Compound 11, (4aS, 8aR)-trans-2-cyclopropylmethyl-4a-(3-hydroxyphenyl)-6α-[N-isobutyl-(6-phenylhexanoamido)]decahydroisoquinoline], in test [1], the pEC50 was 4.22. For the same compound, the results for the Infarction suppression ratio in test [2] (Dose 0.03 mg/kg) and in test [2] (Dose 3 mg/kg) were 5% and 33%, respectively.
